Test results: patent publication US20160115540A1, “PRODRUGS AND DRUGS” (Biogen MA Inc., priority 2013, published 2016)
Structures can show the parent of a compound that is named as a salt.

Tested on: blood and tissues
Assay: Transcriptional profiling, acute (single) dosing, EAE mice: blood and tissues
Assay type: in vivo
Excerpt: EAE induction is generally performed by immunization with brain extracts, CNS proteins (such as myelin basic protein), or peptides from such protein emulsified in an adjuvant such as complete Freund's adjuvant, e.g., as described in Linker et al., Brain. 2011 March 134(Pt3): 678-92. […] FIG. 17 depicts exemplary immunophenotyping panels used to analyze various immune cell populations (e.g., T cells, T regulatory cells, NK cells, B cells, myeloid cells). […] The number of independent mice whose tissues were harvested for transcript profiling studies and whose data passed QC is shown in TABLE 15. Animals were exposed to CO2 and whole blood collected via cardiac puncture. Two 100 μl aliquots of whole blood were collected in 1.5 mL microcentrifuge tubes and snap frozen in liquid nitrogen. Peripheral (liver, spleen, kidney and jejunum) and CNS brain (cerebellum, hippocampus, striatum and cortex) tissues were harvested and snap frozen in liquid nitrogen, with special care taken to collect tissues of similar size and from the same location. All samples were stored at -80° C. until RNA extraction was conducted. For RNA preparation, frozen tissues were placed in 2 mL RNAse-free 96-well blocks with 1.5 mL QIAzol Lysis Reagent (QIAgen) and a 3.2 mm stainless steel bead (BioSpec Products, Bartlesville, Okla.). Tissues were disrupted for four cycles of 45 seconds in a Mini-Beadbeater (Biospec Products). RNA was extracted in chloroform and the aqueous phase was mixed with an equal volume of 70% ethanol. Extracted RNA was applied to RNeasy 96 plates and purified by the spin method according to the manufacturer's protocol (RNeasy 96 Universal Tissue Protocol, QIAgen, Hilden Germany). 50 ul of snap frozen mouse blood was re-suspended in lysis buffer with proteinase K and arrayed into deep-well plates for automated RNA extraction. RNA extractions were completed on […] (Beckman Coulter, Indianapolis, Ind.) using Agencourt RNAdvance Blood kit (Part number A35604) according to the manufacturer's specifications. RNA integrity was assessed using the HT RNA reagent kit (Part number 760410, Caliper Life Sciences, Hopkinton, Mass.) using a LabChip GX (PerkinElmer, Waltham, Mass.). RNA samples with a RQS score of >8.0 were considered high quality for downstream microarray processing. […] Washing and staining of the hybridized arrays were completed as described in the GeneChip Expression analysis technical manual for HT plate arrays using the Genechip® Array Station (Affymetrix, Santa Clara, Calif.) with modifications as described in […] et al. The processed GeneChip® plate arrays were scanned using GeneTitan scanner (Affymetrix, Santa Clara, Calif.). Affymetrix scans were subject to quality control (QC) measures. These tests included a visual inspection of the distribution of raw signal intensities and an assessment of RNA degradation, relative log expression (RLE), and normalized unscaled standard error (NUSE). All sample scans that passed these QC metrics were included in the analysis. […] Nucleic Acids Res 2003; 31:e15; Li C, et al. Genome Biol 2001; 2:[…]0032). […] Stat Appl Genet Mol Biol 2004; 3:Article3). […] Springer Science+Business Media 2005). […] Generally, no distinct sample groupings were apparent from this analysis; however, in the following cohorts, differences in EAE severity across the mice were manifest in global gene expression patterns: An example of this animal grouping is shown in FIG. 33 for the spinal cord from the chronically-dosed 7 h EAE mice. […] Three distinct groups of mice result from unsupervised clustering, and these animal groups correlate with the cumulative EAE score. […] Subsequent analyses for the cohorts listed above only included those animals with the most severe EAE scores; however, for the cohorts 'Spinal Cord, Acute Dosing, 7 h' and 'Spleen, Acute Dosing, 12 h,' there were an insufficient number of mice in the different treatment groups to perform such a sub-analysis. […]

[1] = EAE, Acute Dosing, 90 mpk MMF-vs-Vehicle, 7 h after last dosing
[2] = EAE, Acute Dosing, 90 mpk MMF-vs-Vehicle, 12 h after last dosing
[3] = lymph node, 100MMF-vs-Veh, 12 h

## COC(=O)/C=C/C(=O)O [MMF, monomethyl fumarate]
[1]
  Number of differentially expressed genes identified: Brain: 0
  Number of differentially expressed genes identified: Cerebellum: 1
  Number of differentially expressed genes identified: Lymph Node: 6
  Number of differentially expressed genes identified: Spleen: 114
  Number of differentially expressed genes identified: Whole blood: 6
[2]
  Number of differentially expressed genes identified: Brain: 0
  Number of differentially expressed genes identified: Cerebellum: 1
  Number of differentially expressed genes identified: Lymph Node: 4
  Number of differentially expressed genes identified: Spinal Cord: 1
  Number of differentially expressed genes identified: Whole blood: 7
cerebellum, 100MMF-vs-Veh, 12 h
  FC 5830436I19Rik 1437136_PM_at: 1.87
cerebellum, 100MMF-vs-Veh, 7 h
  FC 1446570_PM_at: 1.51
Lymph node, 100MMF-vs-Veh, 7 h
  FC Aox1 (1419435_PM_at): 2.17
  FC F3 1417408_PM_at: 1.57
  FC Gclm 1439050_PM_at: 1.50
  FC Nqo1 (1423627_PM_at): 1.98
  FC Srxn1 (1419942_PM_at): 1.65
  FC Srxn1 (1426875_PM_s_at): 1.61
[3]
  FC 1446567_PM_at: 1.74
  FC 1457549_PM_at: 1.67
  FC 4930453J04Rik 1454406_PM_at: 1.76
  FC 5830436I19Rik 1437136_PM_at: 1.65
Spinal cord, 100MMF-vs-Veh, 12 h
  FC 1445562_PM_at: 2.11
spleen, 100MMF-vs-Veh, 7 h
  FC 1190002H23Rik 1438511_PM_a_at: 1.60
  FC 1438259_PM_at: 1.56
  FC 1443364_PM_at: 1.88
  FC 1443911_PM_at: 1.54
  FC 1444212_PM_at: 1.54
  FC 1446234_PM_at: 1.50
  FC 1447706_PM_at: 1.57
  FC 1451626_PM_x_at: 1.60
  FC 1452426_PM_x_at: 1.58
  FC 1458296_PM_at: 1.79
  FC 1458586_PM_at: 1.50
  FC 2410129H14Rik 1434664_PM_at: 1.74
  FC 2410129H14Rik 1455052_PM_a_at: 1.56
  FC 2610021A01Rik 1438786_PM_a_at: 1.55
  FC 4732418C07Rik 1446425_PM_at: 1.53
  FC 5730508B09Rik 1447100_PM_s_at: 1.91
  FC AI662270 1434067_PM_at: 1.52
  FC Abi1 1438506_PM_s_at: 1.61
  FC Aco1 (1456728_PM_x_at): 1.69
  FC Acp1 1422716_PM_a_at: 1.80
  FC Adk 1438292_PM_x_at: 1.54
  FC Ampd3 1422573_PM_at: 1.61
  FC Apol9a /// Apol9b 1424518_PM_at: 1.57
  FC Arhgap21 1428369_PM_s_at: 1.57
  FC Arl4a 1435092_PM_at: 2.26
  FC Arl6ip6 1424020_PM_at: 1.52
  FC B3galnt2 1454842_PM_a_at: 1.51
  FC Birc6 1442959_PM_at: 1.54
  FC C79407 1434767_PM_at: 1.95
  FC C1d 1416886_PM_at: 1.52
  FC C330027C09Rik 1449699_PM_s_at: 1.59
  FC Cat 1416429_PM_a_at: 1.51
  FC Ccl6 (1420249_PM_s_at): 1.57
  FC Cdyl 1418070_PM_at: 1.73
  FC Cenpa 1441864_PM_x_at: 1.86
  FC Chic2 1429050_PM_at: 1.67
  FC Cno 1459783_PM_s_at: 1.58
  FC Cpt1a 1434866_PM_x_at: 1.54
  FC Cpt1a 1438156_PM_x_at: 1.52
  FC Cul4a 1451971_PM_at: 1.71
  FC Cycs /// Gm10053 1456071_PM_a_at: 1.64
  FC D030056L22Rik 1455384_PM_x_at: 1.60
  FC Dck 1439012_PM_a_at: 1.59
  FC Dck 1449176_PM_a_at: 1.89
  FC Dctn6 1416499_PM_a_at: 1.53
  FC Dennd4a 1435975_PM_at: 1.71
  FC Ell2 1450744_PM_at: 1.58
  FC Elmo1 1424523_PM_at: 1.52
  FC Gclm 1439050_PM_at: 1.99
